These are literature values, as cited in patent US9409968B2, “Toll-like receptor-based biosensors” (University of Massachusetts, priority 2009, dated 2016).

For the series, the system named is lupus-prone mice. The settings on record: administered to lupus-prone mice.

Regarding “5′-TGCTCCTGGAGGGGTTGT-3′ (listed as DNA, chemistry not given here) [IRS 954]”, the autoantibody production entry is “reduction of autoantibody production” and the disease symptoms result is “amelioration of disease symptoms”.
